# Counter-ions that a name gives are not always drawn.
# Key:
# [1] = test system: healthy rats; test: content of aminotransferase in the serum of healthy rats after oral administration for 15 days; type: in vivo; details: for ALT / AST: serum of healthy rats, oral administration for 15 days, n=10
# Protocol: Elevated aminotransferase is a common side effect of Iguratimod. To investigate whether the compounds of the present disclosure have effects on aminotransferase, healthy rats were administered orally the compound of the present disclosure and Iguratimod for 15 days, respectively, and then the content of aminotransferase in the serum of rats was determined.
# [2] = test system: adjuvant arthritis (AA) of rats; test: anti-arthritic activity in the animal model of adjuvant arthritis (AA) of rats, foot swelling by drainage method; type: in vivo; design: key to The average swelling degree before administration (X ± s) / Average swelling degree after administration (X ± s): (toe volume after − before inflammation)/volume before; fraction; details: rat adjuvant arthritis; for The average swelling degree before administration (X ± s): foot swelling degree before administration (baseline); for The average swelling degree before administration (X ± s) / Average swelling degree after administration (X ± s): n=10; for Average swelling degree after administration (X ± s): gavage 50 μg/dose/day for consecutive 5 days
# Protocol: The study on the anti-arthritic activity of the compounds of the present disclosure was conducted based on the animal model of adjuvant arthritis (AA) of rats and on the establishment of adjuvant arthritis of rats. The rats were divided into 14 groups, with 10 rats in each group, and the rats were administered by gavage the compound of the present disclosure, a blank control, and a positive control substance of Iguratimod at a dose of 50 μg/dose/day for consecutive 5 days. A drainage method was used to determine the degree of foot swelling in rats of each group before and after administration, and the degree of foot swelling in rats before and after administration was calculated to determine whether the drug was effective.
# Foot swelling degree X=(volume of the toe after inflammation−volume of toe before inflammation)/volume of the toe before inflammation×100%.
Structure (SMILES),ALT [1] [U/L],AST [1] [U/L],The average swelling degree before administration (X ± s) [2],Average swelling degree after administration (X ± s) [2],"side effects (aminotransferase elevation) compared with Iguratimod ([1]; healthy rats, oral, conclusion in words)",anti-inflammatory effect compared with Iguratimod ([2]; conclusion in words)
CS(=O)(=O)Nc1cc2scc(NC=O)c(=O)c2cc1Oc1ccccc1 [Compound 1 potassium salt],126 ± 10.05,78 ± 8.74,0.455 ± 0.0279,0.020 ± 0.0323,,
CS(=O)(=O)Nc1cc2scc(NC=O)c(=O)c2cc1Oc1ccccc1 [Compound 1 sodium salt],129 ± 10.18,76 ± 9.22,0.450 ± 0.0284,0.023 ± 0.0306,,
"CS(=O)(=O)Nc1cc2scc(NC=O)c(=O)c2cc1Oc1ccccc1 [Compound 1, 3-formamido-7-methylsulfonamido-6-phe noxy-4H-I-thiobenzopyran-4-one]",125 ± 10.24,75 ± 8.22,0.453 ± 0.0290,0.020 ± 0.0335,,
CS(=O)(=O)Nc1cc2scc(NC=O)c(=O)c2cc1Sc1ccccc1 [Compound 2 potassium salt],109 ± 9.11,77 ± 9.02,0.453 ± 0.0290,0.021 ± 0.0335,,
CS(=O)(=O)Nc1cc2scc(NC=O)c(=O)c2cc1Sc1ccccc1 [Compound 2 sodium salt],104 ± 9.05,76 ± 9.56,0.448 ± 0.0291,0.020 ± 0.0325,,
"CS(=O)(=O)Nc1cc2scc(NC=O)c(=O)c2cc1Sc1ccccc1 [Compound 2, 3-formamido-7-methylsulfonamido-6-phenylthio-4H-1-thiobenzopyran-4-one]",108 ± 9.43,80 ± 9.28,0.430 ± 0.0312,0.019 ± 0.0315,further weaker side effects,
CS(=O)(=O)Nc1cc2scc(NC=O)c(=O)c2cc1[S+]([O-])c1ccccc1 (stereo not drawn) [Compound 3 potassium salt],141 ± 7.89,89 ± 8.91,0.454 ± 0.0277,0.023 ± 0.0330,,
CS(=O)(=O)Nc1cc2scc(NC=O)c(=O)c2cc1[S+]([O-])c1ccccc1 (stereo not drawn) [Compound 3 sodium salt],140 ± 8.83,87 ± 9.06,0.438 ± 0.0229,0.022 ± 0.0333,,
CS(=O)(=O)Nc1cc2scc(NC=O)c(=O)c2cc1[S+]([O-])c1ccccc1 (stereo not drawn) [Compound 3],143 ± 7.83,90 ± 8.76,0.449 ± 0.0305,0.025 ± 0.0339,,
CS(=O)(=O)Nc1cc2scc(NC=O)c(=O)c2cc1S(=O)(=O)c1ccccc1 [Compound 4 potassium salt],132 ± 8.79,85 ± 6.87,0.418 ± 0.0198,0.019 ± 0.0274,,
CS(=O)(=O)Nc1cc2scc(NC=O)c(=O)c2cc1S(=O)(=O)c1ccccc1 [Compound 4 sodium salt],130 ± 9.15,83 ± 8.09,0.435 ± 0.0290,0.018 ± 0.0303,,
"CS(=O)(=O)Nc1cc2scc(NC=O)c(=O)c2cc1S(=O)(=O)c1ccccc1 [Compound 4, N-(7-(methylsulfonamido)-4-oxo-6-(phenylsulfonyl)-4H-thiobenzopyran-3-yl)carboxamide]",133 ± 9.04,79 ± 9.82,0.425 ± 0.0247,0.017 ± 0.0305,,better anti-inflammatory effect
"CS(=O)(=O)Nc1cc2occ(NC=O)c(=O)c2cc1Oc1ccccc1 [Iguratimod, 3-formamido-7-methylsulfonamido-6-phenoxy-4H-1-benzopyran-4-one, reference compound]",173 ± 9.86,145 ± 10.98,0.445 ± 0.0321,0.029 ± 0.0389,,

# Source: patent publication US12110282B2, “Thiobenzopyrans and their use in preparation of drugs for treatment of rheumatoid arthritis” (HC SYNTHETIC PHARMACEUTICAL CO., LTD., priority 2020, dated 2024)
